Measurements reported in patent US10238612B2, “Transdermal administration of tamsulosin” (Corium International, Inc., priority 2009, dated 2019).

Assay: Solubility of tamsulosin in DMSO and in mixtures of DMSO and water
Format: physicochemical
Excerpt: For example, dimethylsulfoxide (DMSO) may potentially be used. The table below gives some data on the solubility of tamsulosin in DMSO and in mixtures of DMSO and water: […]

CCOc1ccccc1OCCN[C@H](C)Cc1ccc(OC)c(S(N)(=O)=O)c1 [Tamsulosin, 5-[2-[[2-(2-ethoxyphenoxy)ethyl]amino]propyl]-2-methoxy-benzenesulfonamide]
Solubility of Tamsulosin (Water in DMSO 0 w/w %): 230 mg/g
Solubility of Tamsulosin (w/w %) (Water in DMSO 0 w/w %): 23.0 w/w %
Solubility of Tamsulosin (Water in DMSO 8.85 w/w %): 72.9 mg/g
Solubility of Tamsulosin (w/w %) (Water in DMSO 8.85 w/w %): 7.29 w/w %
Solubility of Tamsulosin (Water in DMSO 16.85 w/w %): 30.2 mg/g
Solubility of Tamsulosin (w/w %) (Water in DMSO 16.85 w/w %): 3.02 w/w %
Solubility of Tamsulosin (w/w %) (Water in DMSO 29.19 w/w %): 0.52 w/w %
